Test results: patent US10066025B2, “Compositions and methods for detecting, treating and preventing diseases and disorders” (YALE UNIVERSITY, priority 2012, dated 2018)

Legend:
[1] = test system: renal ischemia/reperfusion (IR) injury; test: Murine model of renal ischemia/reperfusion (IR) injury, plasma creatinine; type: in vivo, mice; settings: for effect of ERK or PI3K/AKT inhibitor pretreatment on protective action of RP-H220 / protection against ischemic AKI (renal injury, plasma creatinine at 24 hr): WT mice; for effect of ERK or PI3K/AKT inhibitor pretreatment on protective action of RP-H220: 30 min renal IR; for severity of AKI, inhibitor alone without the peptides: ischemic WT mice; for renal protection (plasma creatinine): 5 mg/kg i.p., 30 min. renal IR; for protection against ischemic AKI (renal injury, plasma creatinine at 24 hr): renalase peptides 100 μg subcutaneous 10 to 30 min prior to 30 min renal ischemia
Protocol: Adult male renalase deficient (KO) mice (Wu et al., 2011, Kidney Int 79: 853-860) on a C57BL/6 background were subjected to renal ischemia/reperfusion (IR) as described (Kim et al., 2009, Kidney Int 75: 809-823; Kim et al., 2010, Am J Physiol Renal Physiol 299(2):F347-58). Renalase KO or wild type (WT) mice (C57BL/6 from Harlan Labs, Indianapolis, Ind.) were subjected to sham-operation or to 20 min. (moderate) or 30 min. (severe) renal ischemia and 24 hr. reperfusion. To test the renal protective effects of recombinant human renalase, mice were pretreated with saline (vehicle) or with recombinant renalase (0.5, 1.5 or 4.5 mg/kg, s.c.) 10 min. prior to 30 min. renal ischemia. It was also tested whether renalase treatment after completion of renal ischemia also provides renal protection. Separate cohorts of mice were treated with saline or with renalase (1.5 mg/kg, s.c.) 30 min. or 60 min. after reperfusion of the ischemic kidney. To test whether blocking alpha receptors would mimic the renal protective effects of human recombinant renalase administration, phentolamine (an alpha receptor antagonist, 5 mg/kg, i.p.) was given in some mice 15 min. before renal ischemia.
Plasma creatinine was measured as described with an enzymatic creatinine reagent kit according to the manufacturer's instructions (Thermo Fisher Scientific, Waltham, Mass.) (Slot, 1965, J Clin Lab Invest 17: 381-387).
After animal care and use committee approval, adult male C57BL/6 (Harlan Labs, Indianapolis, Ind.) were subjected to sham-operation or to 30 minutes of renal ischemia followed by 24 hrs of reperfusion as previously described (Lee et al., 2004, American journal of physiology. Renal physiology 286:F298-306). To test the renal protective effects of renalase peptides (RP-220, RP-H220 and RP-224), mice were pretreated with saline (vehicle) or with renalase peptides (100 μg subcutaneous) 10 to 30 minutes prior to renal ischemia.
Blood was collected from mice anesthetized with isoflurane via cardiac puncture into a heparinized syringe and was subsequently centrifuged to separate plasma. Samples were submitted to the Yale O'Brien Kidney Center for measurement of BUN and creatinine. Plasma creatinine was measured either by an enzymatic creatinine reagent kit according to the manufacturer's instructions (Thermo Fisher Scientific, Waltham, Mass.) or by HPLC. These methods of creatinine measurement largely eliminate the interferences from mouse plasma chromagens, known to occur with the Jaffe method.

systemic blood pressure = test: Blood pressure and heart rate in anesthetized mice; type: in vivo; settings: for effect on systemic blood pressure: IV and subcutaneous administration, mice
Protocol: As in 14A, except that RP-H220 is injected; no significant changes in blood pressure (FIG. 14B). Effect of a single intravenous injection of RP-220 (squares) and RP-H220 (diamonds) on heart rate in wild type mice (FIG. 14C).
FIG. 21 depicts the results of experiments examining the effect of RP-220 injection on blood pressure. A single subcutaneous injection of RP-220 (n=3) or buffer (n=2) in anesthetized wild type mice; BP pressure is recorded continuously; RP-220 is given at time 0; each data point represents the mean pressure; the standard error of the means are shown.
Systolic and diastolic pressure and heart rate were measured in anesthetized mice as previously described (Desir et al., 2012, J Am Heart Assoc. 1:e002634).

[2] = test system: PI3K/AKT and MAPK pathways; test: AKT and MAPK signaling and Bcl-2 expression by western blot; type: cell-based, human; settings: HK-2 cells in culture
Protocol: FIG. 12, comprising FIGS. 12A through 12E, is a set of images and graphs showing renalase upregulates Bcl-2, activates PI3K/AKT, ERK, p38, and inhibits JNK. Western blot analysis; P− indicates phosphorylated, activated proteins; signals normalized to GAPDH loading control, then changes in protein phosphorylation (increase=activation, decrease=inhibition) from time 0 are calculated. FIG. 12A: HK-2 and HUVEC cells incubated with renalase for 24 hrs; FIG. 12B: Western blot of time course of AKT and MAPK signaling by renalase, HK-2 cells incubated with renalase for indicated time; changes over baseline in 4c-d are significant (p<0.05); FIG. 12C: Activation of AKT(T308), AKT(5473) and ERK; FIG. 12D: Inhibition of JNK; FIG. 12E: Marked and sustained (60 min) upregulation of p38 by renalase in the presence of cisplatin, western blot for time course, REN=renalase, CP=cisplatin.
MAPK signaling by renalase and renalase peptides. Western blot analysis; ERK: Extracellular signal-Regulated Kinase 1 and 2; JNK: c-Jun N-terminal Kinases; AKT: protein kinase B; p-indicates phosphorylated, activated proteins; representative blot, n=3 (FIG. 20A). Renalase activates AKT (FIG. 20B). Western blot analysis; P− indicates phosphorylated, activated proteins Representative blot, n=3 (FIG. 20B, left panel). Signals normalized to GAPDH loading control; n=3, change over baseline statistically significant (P<0.05) from 1-60 min for ERK, p38 and AKT (T308), and at 30 min only for AKT (S473) (FIG. 20B, right panel). ERK or AKT inhibition abrogates protective effect of RP-H220 (FIG. 20C). Plasma creatinine levels from mice subjected to sham-surgery or to renal ischemia and reperfusion (IR); Renalase WT mice were subjected to sham-surgery or to 30 min renal IR. For mice subjected to renal IR, RP-H220 or vehicle (saline) was injected 10 min prior to renal ischemia. Some animals were pretreated with either the ERK inhibitor PD98059 or the PI3K/AKT inhibitor wortmanin. (N=6-8 per group). *: P<0.05 vs. vehicle-treated mice subjected to sham-surgery; #: P<0.05 vs. vehicle-treated WT mice subjected to renal IR (FIG. 20C).

HK-2 cells [3] = test: HK-2 cell necrosis induced with 2 mM H2O2 (LDH release); type: cell-based, human
Protocol: (§1) HK2 cells (human proximal tubular line) obtained from ATTC (Manassas, Va., USA) were cultured in DMEM/F12 supplemented with glutamine, 10% FBS and antibiotics, and were maintained at 37° C. in 5% CO2. Cells were exposed to cisplatin (20 μM) in the presence or absence of renalase for 24 hrs, and cell viability was assessed by the WST1 method (Roche Applied Science, Germany). Cells were then harvested in RIPA buffer (20 mM Tris-HCl pH 7.5, 150 mM NaCl, 1 mM Na2EDTA, 1 mM EGTA, 1% NP-40, 1% sodium deoxycholate, 2.5 mM sodium pyrophosphate, 1 mM β-glycerophosphate, 1 mM Na3VO4, 1 μg/ml leupeptin) supplemented with a protease and phosphatase inhibitor cocktail (Roche Applied Science, Germany). Proteins were separated by SDS-PAGE and Western blotting was carried out using the following antibodies: anti-renalase monoclonal (Desir et al., 2012, J Am Heart Assoc. 1:e002634; (Lee et al., 2013, J Am Soc Nephrol 24:445-455); anti caspase 3 (Cell Signaling Technology, MA, USA) and anti Bcl2 (Thermo Scientific, USA). Necrotic injury in HK-2 cells (ATCC, Manassas, Va.) was induced with exposure to 2 mM H2O2 for 2-8 hr and lactate dehydrogenase (LDH) released into cell culture media was measured as described using a commercial LDH assay kit (Promega, Madison, Wis.) (Lee and Emala, 2002, American journal of physiology. Renal physiology 282:F844-852).

HK-2 cells [4] = test: HK-2 cell cisplatin toxicity (WST-1 viability, western blot); type: cell-based, human; settings: 20 μM cisplatin, 24 hrs
Protocol: Cultured HK-2 cells were incubated with 20 μM cisplatin for 24 hours with and without recombinant renalase. Renalase expression was examined by Western blot and cell viability (mitochondrial integrity) was determined spectrophotometrically using WST-1, a tetrazolium salt that is cleaved, by mitochondrial dehydrogenases of metabolically active and viable cells, to formazan (420-480 nm) (Boehringer Mannheim, Germany).
as §1

## COc1cccc(-c2cc(=O)c3ccccc3o2)c1N [PD98059, 2′-amino 3′ methoxyflavone, reference compound]
[1]
  effect of ERK or PI3K/AKT inhibitor pretreatment on protective action of RP-H220: completely abrogated
  severity of AKI, inhibitor alone without the peptides: had no effect on the severity of AKI

## Cc1ccc(N(CC2=NCCN2)c2cccc(O)c2)cc1 [Phentolamine, reference compound]
[1]; renalase KO mice
  renal protection (plasma creatinine): protected renalase KO mice
[1]; renalase WT mice
  renal protection (plasma creatinine): produced significant renal protection

## COC[C@H]1OC(=O)c2coc3c2[C@@]1(C)C1=C(C3=O)[C@@H]2CCC(=O)[C@@]2(C)C[C@H]1OC(C)=O [wortmanin, reference compound]
[1]
  effect of ERK or PI3K/AKT inhibitor pretreatment on protective action of RP-H220: A similar result was obtained
  severity of AKI, inhibitor alone without the peptides: had no effect on the severity of AKI

## RP 19: renalase peptide, SEQ ID NO: 8, LLRRQTSGPLYLAVWDKAED (listed as Homo sapiens)
Systemic blood pressure
  effect on systemic blood pressure: no effect on BP

## RP 128: renalase peptide, SEQ ID NO: 7, FRHRVTQINLRDDKWEVSKQ (listed as Homo sapiens)
Systemic blood pressure
  effect on systemic blood pressure: no effect on BP

## RP 220 scrambled: scrambled RP-220, SEQ ID NO: 6, CSKRIFKVISSIEDNNERG (listed as Homo sapiens) [reference compound]
Systemic blood pressure
  effect on systemic blood pressure: no effect on BP
Systemic blood pressure; anesthetized WT mice
  effect on blood pressure and heart rate: no effect on blood pressure and heart rate
[2]; listed as RP-Scr220
  AKT and MAPK signaling (phosphorylation of ERK, p38, AKT): did not activate the AKT and MAPK signaling
[2]; listed as scrambled RP H220
  AKT and MAPK signaling (phosphorylation of ERK, p38, AKT): not

## RP 220: renalase peptide, amino acids 220-239, SEQ ID NO: 3, CIRFVSIDNKKRNIESSEIG (listed as Homo sapiens)
[1]
  protection against ischemic AKI (renal injury, plasma creatinine at 24 hr): less effective
[1]; listed as RP-220
  protection against ischemic AKI (renal injury, plasma creatinine at 24 hr): reduced renal injury
HK-2 cells [3]; at 2 and 4 hrs
  necrosis induced with 2 mM H2O2: significantly reduced necrosis
Systemic blood pressure
  effect on systemic blood pressure: marked and sustained effect on systemic blood pressure
Systemic blood pressure; WT mice, n=4, P=NS
  mean blood pressure decrease at 15 min: 11.9±0.9 mmHg
Systemic blood pressure; anesthetized WT mice
  blood pressure after single intravenous injection: profound fall in blood pressure
  blood pressure after subcutaneous administration: decreased blood pressure
  delay in the onset of fall in blood pressure after subcutaneous administration: 30 to 60 min
  duration of fall in blood pressure after intravenous injection: up to two hours
  heart rate increase: 5%
  onset of fall in blood pressure after intravenous injection: ≤ 30 s
[2]
  AKT and MAPK signaling (phosphorylation of ERK, p38, AKT): rapid and transient phosphorylation
HK-2 cells [4]
  cell survival / protection against cisplatin toxicity: improved HK-2 cell survival

## RP 224: renalase peptide amino acid 224-233, SEQ ID NO: 2, CVSIDNKKRNI (listed as Homo sapiens)
[1]
  protection against ischemic AKI (renal injury, plasma creatinine at 24 hr): not protective
[1]; listed as RP-224
  protection against ischemic AKI (renal injury, plasma creatinine at 24 hr): ineffective
HK-2 cells [3]; at 2 hrs
  protection against 2 mM H2O2 necrosis: protective at 2 hrs
HK-2 cells [3]; at 4 hrs
  protection against 2 mM H2O2 necrosis: not at 4 hrs
Systemic blood pressure
  effect on systemic blood pressure: no effect on BP
Systemic blood pressure; anesthetized WT mice
  effect on blood pressure and heart rate: no effect on blood pressure and heart rate
HK-2 cells [4]
  cell survival / protection against cisplatin toxicity: improved HK-2 cell survival

## RP A220: renalase peptide, SEQ ID NO: 5, IRFVSIDNAAANIESSEIG (listed as Homo sapiens)
Systemic blood pressure
  effect on systemic blood pressure: no effect on BP
